Test system: human PDE4
Test: PDE4 inhibition, in vitro enzymatic IMAP FP assay
Type: biochemical
Conditions: PDE4 partially purified from undifferentiated human monocytic cells (U-937); fluorescently labeled cAMP substrate; 90 minutes at room temperature; fluorescence polarization
Procedure: PDE4 specifically hydrolyzes cAMP and releases the product AMP. The potency of PDE inhibition by said agents is determined in an in vitro enzymatic assay. The assay is commercially available (IMAP™ FP assay Molecular Devices Corp. (MDS)) and is optimized for the use of human PDE4. Fluorescently labeled cAMP is hydrolyzed by PDE4 and in a second step, binding of labeled product to a large binding partner allowed product detection by fluorescence polarization (FP) measurements.
PDE4 is partially purified from undifferentiated human monocytic cells (U-937) according to Thorpy et al. 1992 (J. Pharmacol. Exp. Ther. 263: 1195). […] In addition, PDE4 preparations are validated by inhibition studies with PDE4-specific and unspecific PDE inhibitors.
Stock solutions of test compounds are made in DMSO and diluted in assay buffer (10 mM Tris-HCl, 10 mM MgCl2, 0.1% BSA 0.05% NaN3, pH 7.2) to the desired concentrations. The solutions used in the assay contained test compound in assay buffer with 2% DMSO.
10 μl of substrate (at a concentration recommended by the manufacturer) are mixed with 5 μl of appropriately diluted PDE and 5 μl of test compound solution. 5 μl of reaction buffer with 2% DMSO are used for control reactions. […] After incubation for 90 minutes at room temperature, 60 μl of binding reagent are added as specified by the manufacturer. Binding is allowed to proceed for 30 minutes and fluorescence polarization is measured. Dose dependence of PDE inhibition is measured by assaying dilution series of test compounds in duplicates. IC50 values are determined from the measured activities by curve fitting.

SMILES | IC50 [µM]
CC[C@H]1OC(=O)[C@H](C)[C@@H](O)[C@H](C)[C@@H](O[C@@H]2O[C@H](C)C=C[C@H]2O)[C@](C)(OC)C[C@@H](C)C(=O)[C@H](C)[C@H]2[C@H](SCCn3cnc4c(N)ncnc43)C(=O)O[C@@]21C (stereo in doubt) [Example 1] | 4.8
CC[C@H]1OC(=O)[C@H](C)[C@@H](O[C@H]2C[C@@](C)(OC)[C@@H](O)[C@H](C)O2)[C@H](C)[C@@H](O[C@@H]2O[C@H](C)C[C@@H](OC)[C@@H]2N(C)C)[C@](C)(OC)C[C@@H](C)C(=O)[C@H](C)[C@H]2[C@H](SCCN(Cc3c(Cl)cncc3Cl)c3ccc(OC)c(OC4CCCC4)c3)C(=O)O[C@@]21C (stereo in doubt) [Example 7] | 0.14
CC[C@H]1OC(=O)[C@H](C)[C@@H](O[C@H]2C[C@@](C)(OC)[C@@H](O)[C@H](C)O2)[C@H](C)[C@@H](O[C@@H]2O[C@H](C)C[C@H](N(C)CC(C)C)[C@H]2O)[C@](C)(OC)C[C@@H](C)C(=O)[C@H](C)[C@H]2[C@H](SCCN(C(=O)c3ccncc3)c3ccc(OC)c(OC4CCCC4)c3)C(=O)O[C@@]21C (stereo in doubt) [Example 3] | 13.6
CC[C@H]1OC(=O)[C@H](C)[C@@H](O[C@H]2C[C@@](C)(OC)[C@@H](O)[C@H](C)O2)[C@H](C)[C@@H](O[C@@H]2O[C@H](C)C[C@@H](OC)[C@@H]2N(C)C)[C@](C)(OC)C[C@@H](C)C(=O)[C@H](C)[C@H]2[C@H](SCCn3cnc4c(N)ncc(C(=O)Nc5c(Cl)cncc5Cl)c43)C(=O)O[C@@]21C (stereo in doubt) [Example 5] | 0.11
CC[C@H]1OC(=O)[C@H](C)[C@@H](O)[C@H](C)[C@@H](O[C@@H]2O[C@H](C)C[C@@H](N3CCOCC3)[C@@H]2N(C)C)[C@](C)(OC)C[C@@H](C)C(=O)[C@H](C)[C@H]2[C@H](SCCN(Cc3c(Cl)cncc3Cl)c3ccc(OC)c(OC4CCCC4)c3)C(=O)O[C@@]21C (stereo in doubt) [Example 12] | 0.22
CC[C@H]1OC(=O)[C@H](C)[C@@H](O[C@H]2C[C@@](C)(OC)[C@@H](O)[C@H](C)O2)[C@H](C)[C@@H](O[C@@H]2O[C@H](C)C[C@H](N(C)C(C)=O)[C@H]2O)[C@](C)(OC)C[C@@H](C)C(=O)[C@H](C)[C@H]2[C@H](SCCN(Cc3c(Cl)cncc3Cl)c3ccc(OC)c(OC4CCCC4)c3)C(=O)O[C@@]21C [Example 10] | 0.031
CC[C@H]1OC(=O)[C@H](C)[C@@H](O)[C@H](C)[C@@H](O[C@@H]2O[C@H](C)C[C@@H](OC)[C@@H]2N(C)C)[C@](C)(OC)C[C@@H](C)C(=O)[C@H](C)[C@H]2[C@H](SCCN(Cc3c(Cl)cncc3Cl)c3ccc(OC)c(OC4CCCC4)c3)C(=O)O[C@@]21C (stereo in doubt) [Example 8] | 0.22
CC[C@H]1OC(=O)[C@H](C)[C@@H](O[C@H]2C[C@@](C)(OC)[C@@H](O)[C@H](C)O2)[C@H](C)[C@@H](O[C@@H]2O[C@H](C)C[C@@H](OC)[C@@H]2N(C)C)[C@](C)(OC)C[C@@H](C)C(=O)[C@H](C)[C@H]2[C@H](SCCN(Cc3ccncc3)c3ccc(OC)c(OC4CCCC4)c3)C(=O)O[C@@]21C (stereo in doubt) [Example 6] | 1.4
CC[C@H]1OC(=O)[C@H](C)[C@@H](O[C@H]2C[C@@](C)(OC)[C@@H](O)[C@H](C)O2)[C@H](C)[C@@H](O[C@@H]2O[C@H](C)C[C@H](N(C)CC(C)C)[C@H]2O)[C@](C)(OC)C[C@@H](C)C(=O)[C@H](C)[C@H]2[C@H](SCCn3cnc4c(N)ncnc43)C(=O)O[C@@]21C (stereo in doubt) [Example 2] | 2.8
CC[C@H]1OC(=O)[C@H](C)[C@@H](O)[C@H](C)[C@@H](O[C@@H]2O[C@H](C)C[C@H](N(C)C)[C@H]2OC)[C@](C)(OC)C[C@@H](C)C(=O)[C@H](C)[C@H]2[C@H](SCCN(Cc3c(Cl)cncc3Cl)c3ccc(OC)c(OC4CCCC4)c3)C(=O)O[C@@]21C (stereo in doubt) [Example 9] | 0.3
CC[C@H]1OC(=O)[C@H](C)[C@@H](O[C@H]2C[C@@](C)(OC)[C@@H](O)[C@H](C)O2)[C@H](C)[C@@H](O[C@@H]2O[C@H](C)C[C@H](N(C)C(=O)N3CCOCC3)[C@H]2O)[C@](C)(OC)C[C@@H](C)C(=O)[C@H](C)[C@H]2[C@H](SCCCOc3cc(C(=O)Nc4c(Cl)cncc4Cl)ccc3OC)C(=O)O[C@@]21C (stereo in doubt) [Example 16] | 0.22
CC[C@H]1OC(=O)[C@H](C)[C@@H](O[C@H]2C[C@@](C)(OC)[C@@H](O)[C@H](C)O2)[C@H](C)[C@@H](O[C@@H]2O[C@H](C)C[C@H](N(C)C(C)=O)[C@H]2O)[C@](C)(OC)C[C@@H](C)C(=O)[C@H](C)[C@H]2[C@H](SCCOc3cc(C(=O)Nc4c(Cl)cncc4Cl)ccc3OC)C(=O)O[C@@]21C (stereo in doubt) [Example 14] | 0.0027
